Experimental data as given in EPA's ToxRefDB 2.

How the values were obtained:
rat [1] = details: Multigenerational reproductive toxicity study, sprague dawley, Oral, Feed, dose end: 2 generation
rat [2] = details: Subchronic oral toxicity in rodents, fischer, Feed, dose end: 13 week
dog = details: Subchronic oral toxicity in nonrodent, beagle, Feed, dose end: 13 week
mouse [3] = details: Carcinogenicity, cd1, Oral, Feed, dose end: 78 week
rat [4] = details: Multigenerational reproductive toxicity study, sprague dawley, Oral, Feed, dose end: 2 generation; remark: listed apart in the source
rat [5] = details: Combined chronic toxicity/carcinogenicity, fischer, Oral, Feed, dose end: 24 month
rat [6] = details: Prenatal developmental toxicity study, sprague dawley, Oral, Gavage/Intubation, dose end: 15 GD
rat [7] = details: Multigenerational reproductive toxicity study, sprague dawley, Oral, Gavage/Intubation, dose end: 2 generation
mouse [8] = details: Prenatal developmental toxicity study, cd1, Oral, Gavage/Intubation, dose end: 15 GD
rat [9] = details: Prenatal developmental toxicity study, fischer, Oral, Gavage/Intubation, dose end: 15 GD
rat [10] = details: Multigenerational reproductive toxicity study, sprague dawley, Oral, Gavage/Intubation, dose end: 2 generation; remark: listed apart in the source
[11] = group: cholinesterase, cholinesterase / cholinesterase / cholinesterase / erythrocyte cholinesterase (che) + cholinesterase / cholinesterase / cholinesterase / …
[12] = group: offspring, developmental / offspring survival late / lactation index / lactation index + systemic / in life observation / body weight / offspring (pup…
[13] = group: parental, systemic / pathology microscopic / adrenal gland / [other] + systemic / pathology microscopic / adrenal gland / vacuolization + systemic / …
[14] = group: cholinesterase, cholinesterase / cholinesterase / cholinesterase / plasma cholinesterase (che)
[15] = group: systemic, systemic / hematology / platelet / platelet + systemic / organ weight / adrenal gland / absolute + systemic / organ weight / testes / …
[16] = group: systemic, systemic / pathology microscopic / adrenal gland / hypertrophy + systemic / pathology microscopic / adrenal gland / necrosis + systemic / …
[17] = group: cholinesterase, cholinesterase / cholinesterase / cholinesterase / plasma cholinesterase (che) + cholinesterase / cholinesterase / cholinesterase / …
[18] = group: systemic, systemic / clinical chemistry / albumin / albumin + systemic / clinical chemistry / alkaline phosphatase (alp/alk) / alkaline phosphatase (…
[19] = group: cholinesterase, cholinesterase / cholinesterase / cholinesterase / brain cholinesterase (che) + cholinesterase / cholinesterase / cholinesterase / …
[20] = group: systemic, systemic / urinalysis / protein / protein
[21] = group: cholinesterase, cholinesterase / cholinesterase / cholinesterase / erythrocyte cholinesterase (che)
[22] = group: offspring, systemic / organ weight / spleen / absolute + systemic / organ weight / spleen / relative to body weight
[23] = group: parental, systemic / pathology microscopic / adrenal gland / vacuolization cytoplasmic + systemic / organ weight / adrenal gland / absolute + systemic…
[24] = group: systemic, systemic / pathology microscopic / pituitary gland / adenoma + systemic / pathology microscopic / uterus / polyp stromal + systemic / …
[25] = group: developmental, systemic / in life observation / body weight / fetal weight
[26] = group: maternal, systemic / organ weight / placenta / absolute
[27] = group: offspring, developmental / offspring survival late / viability index / viability index + systemic / in life observation / body weight / offspring (pup…
[28] = group: offspring, systemic / in life observation / body weight / offspring (pup) weight + systemic / in life observation / body weight / offspring (pup) …
[29] = group: parental, systemic / in life observation / body weight / body weight gain + systemic / in life observation / clinical signs / [other] + systemic / in …
[30] = group: parental, systemic / in life observation / clinical signs / reduced activity + systemic / in life observation / body weight / body weight gain + …
[31] = group: reproductive, reproductive / reproductive performance / estrous cycle / length + reproductive / reproductive performance / pregnancy index / pregnancy …
[32] = group: developmental, developmental / developmental malformation / general / [other] + systemic / in life observation / body weight / fetal weight
[33] = group: maternal, reproductive / reproductive performance / resorptions / resorptions + systemic / in life observation / body weight / body weight + systemic…
[34] = group: maternal, systemic / in life observation / clinical signs / hunched posture + systemic / in life observation / clinical signs / lacrimation + systemic…
[35] = group: offspring, systemic / in life observation / body weight / offspring (pup) weight
[36] = group: parental, systemic / in life observation / clinical signs / reduced activity
[37] = group: parental, systemic / in life observation / clinical signs / reduced activity + systemic / organ weight / adrenal gland / relative to body weight + …
[38] = group: reproductive, reproductive / offspring survival early / litter size / litter size + reproductive / offspring survival early / live fetuses / live fetuses
[39] = group: reproductive, reproductive / reproductive performance / gestational length / gestational length + reproductive / reproductive performance / pregnancy …

COP(=S)(OC)Oc1nc(Cl)c(Cl)cc1Cl [Chlorpyrifos-methyl]
LEL (rat [1]; [11]): 1 mg/kg/day | LOAEL (rat [1]; [11]): 1 mg/kg/day | NEL (rat [1]; [11]): 0.1 mg/kg/day | NOAEL (rat [1]; [11]): 0.1 mg/kg/day | LEL (rat [1]; [12]): 5 mg/kg/day | LOAEL (rat [1]; [12]): 5 mg/kg/day | NEL (rat [1]; [12]): 1 mg/kg/day | NOAEL (rat [1]; [12]): 1 mg/kg/day | NEL (rat [1]; group: parental, systemic / pathology microscopic / adrenal gland / [other] + systemic / pathology microscopic / adrenal gland / vacuolization): 1 mg/kg/day | LEL (rat [1]; [13]): 5 mg/kg/day | LOAEL (rat [1]; [13]): > 5 mg/kg/day | NOAEL (rat [1]; [13]): ≥ 5 mg/kg/day | LEL (rat [2]; [14]): 0.1 mg/kg/day | LOAEL (rat [2]; [14]): 0.1 mg/kg/day | NEL (rat [2]; [14]): < 0.1 mg/kg/day | NOAEL (rat [2]; [14]): < 0.1 mg/kg/day | LEL (rat [2]; [15]): 0.1 mg/kg/day | NEL (rat [2]; [15]): < 0.1 mg/kg/day | LOAEL (rat [2]; [16]): 10 mg/kg/day | NOAEL (rat [2]; [16]): 1 mg/kg/day | LEL (dog; [14]): 0.1 mg/kg/day | NEL (dog; [14]): < 0.1 mg/kg/day | LOAEL (dog; [17]): 10 mg/kg/day | NOAEL (dog; [17]): 0.1 mg/kg/day | LEL (dog; [18]): 50 mg/kg/day | LOAEL (dog; [18]): 50 mg/kg/day | NEL (dog; [18]): 10 mg/kg/day | NOAEL (dog; [18]): 10 mg/kg/day | LEL (mouse [3]; [19]): 3.94 mg/kg/day | LOAEL (mouse [3]; [19]): 3.94 mg/kg/day | NEL (mouse [3]; [19]): 0.403 mg/kg/day | NOAEL (mouse [3]; [19]): 0.403 mg/kg/day | LOAEL (mouse [3]; group: systemic, systemic / pathology microscopic / liver / fatty change): 41.5 mg/kg/day | NOAEL (mouse [3]; group: systemic, systemic / pathology microscopic / liver / fatty change + systemic / clinical chemistry / alkaline phosphatase (alp/alk) / alkaline …): 3.94 mg/kg/day | LEL (mouse [3]; [20]): 0.0816 mg/kg/day | NEL (mouse [3]; [20]): < 0.0816 mg/kg/day | LEL (rat [4]; [21]): 1 mg/kg/day | LOAEL (rat [4]; [21]): 1 mg/kg/day | NEL (rat [4]; [21]): < 1 mg/kg/day | NOAEL (rat [4]; [21]): < 1 mg/kg/day | LEL (rat [4]; [22]): 10 mg/kg/day | LOAEL (rat [4]; [22]): > 10 mg/kg/day | NEL (rat [4]; [22]): 3 mg/kg/day | NOAEL (rat [4]; [22]): ≥ 10 mg/kg/day | LOAEL (rat [4]; group: parental, systemic / pathology microscopic / adrenal gland / vacuolization cytoplasmic): 3 mg/kg/day | LEL (rat [4]; [23]): 3 mg/kg/day | NEL (rat [4]; [23]): 1 mg/kg/day | NOAEL (rat [4]; [23]): 1 mg/kg/day | LEL (rat [5]; [21]): 0.1 mg/kg/day | LOAEL (rat [5]; [11]): 1 mg/kg/day | NEL (rat [5]; [11]): 0.05 mg/kg/day | NOAEL (rat [5]; [11]): 0.1 mg/kg/day | LEL (rat [5]; group: systemic, systemic / pathology microscopic / pituitary gland / adenoma): 0.1 mg/kg/day | LOAEL (rat [5]; group: systemic, systemic / pathology microscopic / pituitary gland / adenoma + systemic / pathology microscopic / adrenal gland / vacuolization): 1 mg/kg/day | NEL (rat [5]; [24]): 0.05 mg/kg/day | NOAEL (rat [5]; [24]): 0.1 mg/kg/day

O=C1CCCO1 [4-Butyrolactone]
LEL (rat [6]; [25]): 50 mg/kg/day | LOAEL (rat [6]; [25]): > 500 mg/kg/day | NEL (rat [6]; [25]): 10 mg/kg/day | NOAEL (rat [6]; [25]): ≥ 500 mg/kg/day | LEL (rat [6]; [26]): 10 mg/kg/day | LOAEL (rat [6]; [26]): > 500 mg/kg/day | NEL (rat [6]; [26]): < 10 mg/kg/day | NOAEL (rat [6]; [26]): ≥ 500 mg/kg/day

CN(C)CCCN1c2ccccc2Sc2ccc(Cl)cc21.Cl [Chlorpromazine hydrochloride]
LOAEL (rat [7]; [27]): > 100 mg/kg/day | NOAEL (rat [7]; [27]): ≥ 100 mg/kg/day | LEL (rat [7]; [28]): 12.5 mg/kg/day | NEL (rat [7]; [28]): < 12.5 mg/kg/day | LOAEL (rat [7]; [29]): > 100 mg/kg/day | NOAEL (rat [7]; [29]): ≥ 100 mg/kg/day | LEL (rat [7]; [30]): 12.5 mg/kg/day | NEL (rat [7]; [30]): < 12.5 mg/kg/day | LEL (rat [7]; group: reproductive, reproductive / reproductive performance / estrous cycle / length): 25 mg/kg/day | LOAEL (rat [7]; [31]): > 100 mg/kg/day | NEL (rat [7]; [31]): 12.5 mg/kg/day | NOAEL (rat [7]; [31]): ≥ 100 mg/kg/day | LOAEL (mouse [8]; [32]): > 30 mg/kg/day | NEL (mouse [8]; [32]): 5 mg/kg/day | NOAEL (mouse [8]; [32]): ≥ 30 mg/kg/day | LEL (mouse [8]; [25]): 15 mg/kg/day | LOAEL (mouse [8]; [33]): > 30 mg/kg/day | NEL (mouse [8]; [33]): 5 mg/kg/day | NOAEL (mouse [8]; [33]): ≥ 30 mg/kg/day | LEL (mouse [8]; group: maternal, systemic / in life observation / body weight / body weight + systemic / in life observation / body weight / body weight gain): 15 mg/kg/day | LEL (rat [9]; [25]): 5 mg/kg/day | LOAEL (rat [9]; [25]): > 45 mg/kg/day | NEL (rat [9]; [25]): < 5 mg/kg/day | NOAEL (rat [9]; [25]): ≥ 45 mg/kg/day | LOAEL (rat [9]; [33]): > 45 mg/kg/day | NOAEL (rat [9]; [33]): ≥ 45 mg/kg/day | LEL (rat [9]; [34]): 5 mg/kg/day | NEL (rat [9]; [34]): < 5 mg/kg/day | LOAEL (rat [10]; [27]): > 100 mg/kg/day | NOAEL (rat [10]; [27]): ≥ 100 mg/kg/day | LEL (rat [10]; [35]): 12.5 mg/kg/day | NEL (rat [10]; [35]): < 12.5 mg/kg/day | LEL (rat [10]; [36]): 12.5 mg/kg/day | NEL (rat [10]; [36]): < 12.5 mg/kg/day | LOAEL (rat [10]; [37]): > 100 mg/kg/day | NOAEL (rat [10]; [37]): ≥ 100 mg/kg/day | LEL (rat [10]; [38]): 12.5 mg/kg/day | NEL (rat [10]; [38]): < 12.5 mg/kg/day | LOAEL (rat [10]; [39]): > 100 mg/kg/day | NOAEL (rat [10]; [39]): ≥ 100 mg/kg/day
